Source: patent publication US20250179057A1, “MEK IMMUNE ONCOLOGY INHIBITORS AND THERAPEUTIC USES THEREOF” (Immuneering Corporation, priority 2022, published 2025)
Converted amounts (≈) assume the structure as drawn. Where a name gives a salt, the structure may show the parent alone. Read-outs that look alike come from different tables or passages of the source.

What was measured:
human hepatocytes = test: Hepatocyte stability, human; format: in vitro ADME; conditions: 2 μM, 0.5 million cells/ml; for % Remaining At T120 / T1/2: 120 min
Experimental: (§1) In this study, human, cynomolgus monkey, beagle dog, wistar hannover rat, and balb/c mouse hepatocyle stability was determined.

CYP1A2 = molecular target: T1, CYP1A2 (Homo sapiens, UniProt P05177); test: CYP450 panel inhibition in human liver microsomes, 1A2 (phenacetin); conditions: for CYP-1A2 (Phenacetin) mean percentage CYP inhibition: human liver microsomes, 10 μM, substrate phenacetin
T1 sequence (P05177 1-516): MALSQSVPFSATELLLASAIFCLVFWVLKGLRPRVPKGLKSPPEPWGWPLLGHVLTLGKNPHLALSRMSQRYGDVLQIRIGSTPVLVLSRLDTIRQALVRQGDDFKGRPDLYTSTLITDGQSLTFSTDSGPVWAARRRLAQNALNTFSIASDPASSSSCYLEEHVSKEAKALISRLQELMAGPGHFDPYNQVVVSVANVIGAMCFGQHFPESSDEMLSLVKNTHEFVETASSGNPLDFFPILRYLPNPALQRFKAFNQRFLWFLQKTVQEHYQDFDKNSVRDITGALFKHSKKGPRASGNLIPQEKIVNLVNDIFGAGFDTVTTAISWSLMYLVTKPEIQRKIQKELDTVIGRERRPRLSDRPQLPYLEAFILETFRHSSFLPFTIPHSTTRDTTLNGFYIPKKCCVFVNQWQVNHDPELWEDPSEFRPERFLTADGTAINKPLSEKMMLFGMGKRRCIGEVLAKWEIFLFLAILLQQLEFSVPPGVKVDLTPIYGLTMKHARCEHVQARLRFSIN

CYP3A4 = CYP3A4 (Homo sapiens, UniProt P08684); test: CYP450 panel inhibition in human liver microsomes, 3A4 (midazolam / testosterone); conditions: 10 μM; for CYP-3A4 (Testosterone) mean percentage CYP inhibition: substrate testosterone; for CYP-3A4 (Midazolam) mean percentage CYP inhibition: substrate midazolam
[1] = Caco-2 bidirectional permeability (absorption & efflux); conditions: human
[2] = Hepatocyte stability, cynomolgus monkey; format: in vitro ADME; conditions: 0.5 million cells/ml; for half-life at 2 μM: cynomolgus monkey hepatocytes; for CLint scaled at 2 μM: cynomolgus monkey, hepatocytes
Experimental: as §1

[3] = Plasma stability, human plasma (K2EDTA); format: in vitro ADME; conditions: 2 μM; for % Remaining at T120 / half-life at 2 μM / T1/2: human plasma, anti-coagulant K2-EDTA; for % Remaining at T120: 120 min; for half-life at 2 μM / T1/2: 10 to 120 min; for half-life at 2 μM: read-out: T1/2
Experimental: Individual stock solutions of propantheline and lovastatin were prepared at 10 mM in DMSO and were further diluted to 2 mM with DMSO.
Frozen matrices (Balb/c mouse, Wistar Han rat, Beagle dog, and human plasma containing K2EDTA as anti-coagulant) were thawed and centrifuged at 3100 rpm for 10 minutes at 4° C. to remove particulates. The lipid layer was then removed, and the supernatant was transferred to a new tube without disturbing the pellet. After the matrices were incubated at 37° C. for at least 10 minutes, the pH of each matrix was adjusted to pH 7.4, using 10% phosphoric acid or 1N sodium hydroxide as necessary. Test and control article stock solutions were spiked (2 μL) into matrix (1.998 mL) and mixed to final assay concentration of […]. Duplicate 30-μL aliquots of spiked plasma were transferred to matrix tubes in 96-well plate immediately after spiking for timepoints of 0, 30, 60, 120, 240, and 360 minutes. These tubes were then incubated at 37° C. with shaking and at each timepoint, the corresponding tubes containing samples were quenched with 180 μL of cold acetonitrile containing the internal standards. The quenched samples were vortex-mixed briefly and stored refrigerated. After the final time point (360 minutes), the plates with all quenched samples were vortex-mixed for 10 minutes and then centrifuged at 3100 rpm for 10 minutes at 4° C. to sediment the precipitated protein. The supernatant (50 μL) was transferred to a clean 96-well plate and diluted with 100 μL of water. The plates were stored refrigerated until analysis.
Data Analysis: Peak area ratios for IS-normalized test article and control article counts were used to calculate the percent remaining relative to the time zero (T0) value. As appropriate, results were plotted and further analyzed to calculate half-life (T1/2) values.
Mean peak area ratios were used to calculate the % remaining relative to the T0 value:
In this study, human, cynomolgus monkey, beagle dog, wistar hannover rat, and balb/c plasma stability was determined. Table 28 describes the results of the human plasma stability at 2 μM concentration and anti-coagulant K2-EDTA from 10 to 120 min. Table 29 describes the results of the cynomolgus monkey plasma stability at 2 μM concentration and anti-coagulant K2-EDTA. Table 30 describes the results of the beagle dog plasma stability at 2 μM concentration and anti-coagulant K2-EDTA. Table 31 describes the results of the wistar hannover rat plasma stability at 2 μM concentration and anti-coagulant K2-EDTA. Table 32 describes the results of the balb/c plasma stability at 2 μM concentration and anti-coagulant K2-EDTA.

balb/c mouse hepatocytes = test: Hepatocyte stability, balb/c mouse; format: in vitro ADME; conditions: 2 μM, 0.5 million cells/ml
Experimental: as §1

[4] = Mouse pharmacokinetics (oral cassette dosing), plasma; format: in vivo; conditions: female, mouse, BALB/c immunocompetent mice, 5 mg/kg p.o.
Experimental: Female mice (BALC/c) received a single dose (3 mice/treatment) of vehicle (10% 1N HCl:90% [20% […]) and at 0.5, 1, 2, 4, 8, 12 and 24-hour post dose humanely euthanized.
Blood was obtained through cardiac puncture into K+EDTA tubes, mixed by inversion and centrifuged to obtain the plasma. Blood will be kept on ice or at approximately 4° C. prior. Centrifugation will take place within 30 minutes of blood collection affording plasma samples. Plasma samples will be frozen as soon as possible after centrifugation and stored at −80° C. until analysis. All samples will be analysed by means of LC-MS/MS. Method development for bioanalysis will be performed by pharmacokinetics Department of Crown Bioscience (Taicang) Inc. using LC-MS/MS analysis (using Waters HSS T3 2.1×50 mm (1.8 um) LC column, and an API-4000 Electrospray MS unit). The results of a kinetic solubility (free base) study are represented in Table 19.

[5] = Kinetic solubility (PBS pH 7.4; 4 hr); format: physicochemical; conditions: PBS buffer, kinetic from dmso stock
Experimental: The plates were shaken for 4 h at room temperature in an Eppendorf Thermomixer. After incubation, the plates were centrifuged for 20 minutes at 4680 rpm. From the supernatant, 150 μL was transferred to a new 96 well plate and 50 μL DMSO was added to ensure continued dissolution. Samples were measured on LC-UV at injection volumes of 1 and 8 μL. Peak areas were determined and compared to peak areas obtained using calibration curves of the test compounds in DMSO.

[6] = read-out: CLint (L/hr/kg) (converted)

CYP3A4, sequence (P08684 whole entry): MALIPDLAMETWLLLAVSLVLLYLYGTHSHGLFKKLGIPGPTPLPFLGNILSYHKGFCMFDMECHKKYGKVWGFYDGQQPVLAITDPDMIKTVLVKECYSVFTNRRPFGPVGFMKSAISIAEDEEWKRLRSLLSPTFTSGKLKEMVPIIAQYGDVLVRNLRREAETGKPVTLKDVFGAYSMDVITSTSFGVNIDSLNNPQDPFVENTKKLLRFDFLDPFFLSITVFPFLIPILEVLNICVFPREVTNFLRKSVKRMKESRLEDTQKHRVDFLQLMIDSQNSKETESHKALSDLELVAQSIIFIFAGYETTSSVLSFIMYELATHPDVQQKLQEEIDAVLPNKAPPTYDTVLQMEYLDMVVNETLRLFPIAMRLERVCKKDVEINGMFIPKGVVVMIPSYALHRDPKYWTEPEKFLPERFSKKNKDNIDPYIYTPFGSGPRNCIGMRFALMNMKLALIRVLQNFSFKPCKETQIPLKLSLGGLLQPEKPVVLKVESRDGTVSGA

SMILES | % Remaining At T120 (human hepatocytes) [%] | CYP-3A4 (Testosterone) mean percentage CYP inhibition (CYP3A4) [%] | % Remaining at T120 [3] [%] | % Remaining At T120 (balb/c mouse hepatocytes) [%] | CLint (L/hr/kg) (human hepatocytes) [L/h/kg] | CLint (mL/min/kg) (human hepatocytes) | T1/2 (human hepatocytes) [h] | CYP-1A2 (Phenacetin) mean percentage CYP inhibition (CYP1A2) [%] | CYP-3A4 (Midazolam) mean percentage CYP inhibition (CYP3A4) [%] | T1/2 [3] [h] | CLint (L/hr/kg) (balb/c mouse hepatocytes) [L/h/kg] | CLint (mL/min/kg) (balb/c mouse hepatocytes) | T1/2 (balb/c mouse hepatocytes) [h] | also measured
CNS(=O)(=O)Nc1cccc(Cc2c(CN3CCNCC3)c3ccc(OC(=O)N(C)C)cc3oc2=O)c1Cl [Compound 246, 3-(2-chloro-3-((N-methylsulfamoyl)amino)benzyl)-2-oxo-4-(piperazin-1-ylmethyl)-2H-chromen-7-yl dimethylcarbamate hydrochloride] | 95.3 | 24.6 | 105.7 | 73.6 |  |  |  |  |  |  |  |  |  | inhibition at 30 min, 10 µM (CYP1A2; human, microsomes, pH 7.4): -3.7%; Papp A→B at 2 h, 10 μM [1]: 4.16 ×10⁻⁶ cm/s; Papp B→A at 2 h, 10 μM [1]: 6.99 ×10⁻⁶ cm/s; efflux ratio at 2 h, 10 μM [1]: 1.68; half-life at 2 μM [2]: 6.75 h; CLint scaled at 2 μM [2, 6]: 0.832 L/h/kg; CLint scaled at 2 μM ([2]; read-out: CLint (mL/min/kg)): 0.834 L/h/kg; half-life at 2 μM ([3]; pH 7.4): > 2 h
CNS(=O)(=O)Nc1cccc(Cc2c(CN3CCNCC3)c3cc(F)c(OC(=O)N(C)C)cc3oc2=O)c1F [Compound 134] | 94.7 | 52.6 | 107.8 | 70.2 | 0.148 | 2.46 | 25.35 | −0.9 | 44.5 | >2 | 4.18 | 69.7 | 3.92 | 
CCCS(=O)(=O)Nc1cccc(Cc2c(CN3CCNCC3)c3cc(Cl)c(OC(=O)N(C)C)cc3oc2=O)c1F [Compound 167] | 53.8 | 51.2 | 84.6 | 52.5 | 1.67 | 27.9 | 2.23 | 10.8 | 54.8 | 15.8 | 7.61 | 127 | 2.15 | 
CNS(=O)(=O)Nc1nccc(Cc2c(C)c3ccc(Oc4ncccn4)cc3oc2=O)c1F [Reference-2, reference compound] |  |  |  |  |  |  |  |  |  |  |  |  |  | Human (% Reamining @2 hour) ([3]; plasma, 2 hour): 91.1%
CCN(C)Cc1c(Cc2cccc(NS(=O)(=O)NC)c2F)c(=O)oc2cc(OC(=O)N(C)C)c(F)cc12 [Compound 238] | 27.3 |  | 95.7 | 57.3 |  |  |  |  |  |  |  |  |  | AUC(0-inf) [4]: 434 ng·h/mL; half-life [4]: 1 h; AUC(0-t) ([4]; read-out: AUC0-t): 416 ng·h/mL; Cmax ([4]; read-out: Cmax): 857 ng/mL; Tmax ([4]; read-out: Tmax): 4.98 min; solubility kinetic at 4 h ([5]; pH 7.4, aqueous buffer, free base (Table 19), read-out: Kinetic Solubility): 40 µM (≈ 21.5 µg/mL); Papp A→B at 2 h, 10 μM [1]: 14.2 ×10⁻⁶ cm/s; Papp B→A at 2 h, 10 μM [1]: 13.5 ×10⁻⁶ cm/s; efflux ratio at 2 h, 10 μM [1]: 0.956; half-life at 2 μM [2]: 0.953 h; CLint scaled at 2 μM [2, 6]: 5.89 L/h/kg; CLint scaled at 2 μM ([2]; read-out: CLint (mL/min/kg)): 5.89 L/h/kg; half-life at 2 μM ([3]; pH 7.4): 68.6 h
CNS(=O)(=O)Nc1nccc(Cc2c(CN(C)C)c3ccc(OC(=O)N(C)C)cc3oc2=O)c1F [Compound 124] | 70.3 | 62.6 | 85.0 | 55.1 | 0.953 | 15.9 | 3.93 | 9.9 | 63.2 | 10.5 | 7.04 | 117 | 2.33 | 
Cn1cnc2c(F)c(Nc3ccc(Br)cc3Cl)c(C(=O)NOCCO)cc21 [Reference-1, Selumetinib] |  |  |  |  |  |  |  |  |  |  |  |  |  | solubility kinetic at 4 h ([5]; aqueous buffer, PBS pH = 7.4, 4 hr (Table 7), read-out: Kinetic Solubility (PBS pH = 7.4; 4 hr)): 36 µM (≈ 16.5 µg/mL); Human (% Reamining @2 hour) ([3]; human, 2 h, pH 7.4): 98.1%
